Values quoted from earlier work as cited in patent US20230285276A1, “Implantable Medical Device for the Delivery of Aromatase Inhibitor” (Celanese EVA Performance Polymers LLC, priority 2022, published 2023).

Experiments:
[1] = system: adrenal biosynthesis of corticosteroids or aldosterone; conditions: in vivo
circulating estrogen = conditions: postmenopausal women

solubility in N, N-dimethylformamide (N, N-dimethylformamide, descriptive term): freely soluble | solubility in methanol (methanol, descriptive term): soluble | solubility in water (descriptive term) (water): practically insoluble
Structure (SMILES): C=C1C[C@@H]2[C@H](CC[C@]3(C)C(=O)CC[C@@H]23)[C@@]2(C)C=CC(=O)C=C12 [Exemestane, 6-methylenandrosta-1,4-diene-3,17-dione]
effect on adrenal biosynthesis of corticosteroids or aldosterone [1]: no detectable effect | circulating estrogen concentration (circulating estrogen): lowers
